Drawing on BindingDB's records for doi:10.1021/jm500759v (Griffith University, 2014), this text covers IC50 for 13 compounds.

Bounds are passed on as bounds.

The nature of the assay: Inhibition of neuraminidase activity of human parainfluenza virus 1 C35 hemagglutinin-neuraminidase pre-incubated for 20 mins before MUN substrate by methylumbelliferone release based fluorescence assay.
`CC(=O)N[C@H]1[C@H]([C@H](O)[C@H](O)CO)OC(C(=O)O)=C[C@@H]1N` came in with an IC50 of over 1000 µM.

The compound `CC(C)C(=O)N[C@H]1[C@H]([C@H](O)[C@H](O)CO)OC(C(=O)O)=C[C@@H]1O` had an IC50 of 3.82 µM.

In turn, `CC(C)C(=O)N[C@H]1[C@H]([C@H](O)[C@H](O)CO)OC(C(=O)O)=C[C@@H]1N=[N+]=[N-]` had an IC50 of 0.5 µM.

On to `CC(CO)C(=O)N[C@H]1[C@H]([C@H](O)[C@H](O)CO)OC(C(=O)O)=C[C@@H]1N=[N+]=[N-]` (stereo partly drawn), for which the IC50 stood at 9.49 µM.

For `C/C=C(\C)C(=O)N[C@H]1[C@H]([C@H](O)[C@H](O)CO)OC(C(=O)O)=C[C@@H]1N=[N+]=[N-]`, the IC50 came to 7.76 µM.

For the compound `CCC(C)C(=O)N[C@H]1[C@H]([C@H](O)[C@H](O)CO)OC(C(=O)O)=C[C@@H]1N=[N+]=[N-]` (stereo partly drawn), the IC50 was 1.58 µM.

The compound `[N-]=[N+]=N[C@H]1C=C(C(=O)O)O[C@@H]([C@H](O)[C@H](O)CO)[C@@H]1NC(=O)C1CCC1` showed an IC50 of 1.92 µM.

The compound `[N-]=[N+]=N[C@H]1C=C(C(=O)O)O[C@@H]([C@H](O)[C@H](O)CO)[C@@H]1NC(=O)C1CC1` registered an IC50 of 0.91 µM.

Take `CC(O)C(=O)N[C@H]1[C@H]([C@H](O)[C@H](O)CO)OC(C(=O)O)=C[C@@H]1N=[N+]=[N-]` (stereo partly drawn): the IC50 was determined as 68.1 µM.

Compound `CC(=O)N[C@H]1[C@H]([C@H](O)[C@H](O)CO)OC(C(=O)O)=C[C@@H]1O` had an IC50 of 63.8 µM.

In the case of `CC(C)C(=O)N[C@H]1[C@H]([C@H](O)[C@H](O)CO)OC(C(=O)O)=C[C@@H]1NC(=N)N`, the IC50 was over 1000 µM.

As to `CC(=O)N[C@H]1[C@H]([C@H](O)[C@H](O)CO)OC(C(=O)O)=C[C@@H]1N=[N+]=[N-]`, 3.92 µM corresponded to half-maximal inhibition (IC50).

With `CC(C)C(=O)N[C@H]1[C@H]([C@H](O)[C@H](O)CO)OC(C(=O)O)=C[C@@H]1N`, the IC50 is 261 µM.
